Each structure is given as a SMILES string.

The source of these data is patent publication US5112815A, “9α-hydroxy-3-oxo-4,24(25)-stigmastadien-26-oic acid derivatives, a process for preparing same and pharmaceutical compositions containing same” (Richer Gedeon Vegyeszet, priority 1989, dated 1992).

In experiment [1] the test system is cholesterol biosynthesis (rat liver homogenate). Nature of the experiment: Inhibition of cholesterol biosynthesis: incorporation of radiolabelled acetic acid into cholesterol in rat liver homogenate. The note with it: 2 h at 37° C. It is filed as biochemical, Hannover Wistar male rats. The text has this:
The cholesterol-biosynthesis-inhibiting effect of the compounds according to the invention is illustrated by the example of 9 α-hydroxy-3-oxo-4,24(25)-stigmastadien-26-oic acid (I, wherein M stands for hydrogen). The inhibitory effect of this compound was compared with that of 3β-hydroxy-5α-cholest-8(14)-en-15-one (Colestolone) by the method of A. Endo and co-workers [Eur. J. Biochem. 77, 31 (1977); Biochem. Biophys. Acta 486, 71 (1977)] studying in rat liver homogenate the incorporation of radiolabelled acetic acid into cholesterol.
Hannover Wistar male rats weighing 50-60 g were used for the experiment. Before the experiments the animals were fed for a week with rat chew enriched with 5% cholestyramine, in a reversed light cycle (light from 4 p.m. to 4 a.m., and dark from 4 a.m. to 4 p.m.). The food and water were available ad libitum.
The animals were decapitated on the day of the experiment, Livers were immersed in ice cold Krebs/Ringer bicarbonate buffer (pH 7.4) and cut into small pieces. Using a tissue homogenizer in a gentle mode of operation we prepared a crude liver homogenate of which a portion equivalent to 100 mg of wet liver was weighed into glass-stoppered tubes. The operations were carried out under constant cooling. The incubation mixture included the liver homogenate, the Krebs/Ringer bicarbonate buffer, the sodium-(1-^14 C)acetate (supplied by IZINTA; specific activity: 14.86 MBq/mg) and the (^3 H)cholesterol oleate (supplied by Du Pont; specific activity: 3067 GBq/mmole). The steroids inhibiting cholesterol biosynthesis were added to the incubation mixture in an alcoholic solution containing albumin, as described by G. J. Schroepfer and co-workers [J. Biol. Chem. 24, 8975 (1977)]. The final volume of the incubation mixture was 2.0 ml. Incubation went on for 2 hours in a water bath of 37° C., then 2 ml of alcohol containing 15% (w/v) of KOH were added to the mixture, which was then kept at 70°-75° C. for further 2 hours. The lipids were extracted from the alkaline mixture by petroleum ether. After evaporation of the solvent in nitrogen stream the dry residue was dissolved in a mixture of acetone and ethanol, then the cholesterol was precipitated by a solution of digitonin. The precipitate was centrifuged and dissolved in scintillation cocktail. The activity was measured for 5 minutes using a Hitachi scintillation spectrometer.

Another experiment has as its system serum cholesterol. The following applies: several animal species and humans, literature; cited from earlier work.

Consider `CCC(CC[C@@H](C)[C@H]1CC[C@H]2[C@@H]3CCC4=CC(=O)CC[C@]4(C)[C@@]3(O)CC[C@]12C)=C(C)C(=O)O` [9α-hydroxy-3-oxo-4,24(25)-stigmastadien-26-oic acid], for which the “Inhibition, %” value in experiment [1] (concentration 2.5 μM) stood at 65.3%; in experiment [1] (concentration 10.0 μM), 86.3%.
On to `CC(C)CCC[C@@H](C)[C@H]1CC(=O)C2=C3CC[C@H]4C[C@@H](O)CC[C@]4(C)[C@H]3CC[C@@]21C` [3β-Hydroxy-5α-cholest-8(14)-en-15-one, 3β-hydroxy-5α-cholest-8(14)-en-15-one], for which the “Inhibition, %” value in experiment [1] (concentration 2.5 μM) was 16.6%; in experiment [1] (concentration 10.0 μM), 55.0%. Further, the serum cholesterol-lowering effect entry with serum cholesterol is listed as “significant serum cholesterol-lowering effect”.
